Several values for one entry are separate records, joined by “and”; a condition that tells them apart may be missing. Equal values may be shown once.

This experiment deals with Replicase polyprotein 1ab (Severe acute respiratory syndrome coronavirus 2, UniProt P0DTD1). The experiment is described as follows: Functional biochemical assay to identify treatments for viral infectious disease that targets SARS-COV-2 nsp3 macrodomain, whereby the mechanism of action displaces an ADP-Ribose modified peptide from the binding site. Utilizing a time-resolved fluorescence method to measure binding by reading the emitted fluorescence intensity in two wavelengths.
For `O=C(O)c1cnc(C(=O)N2CCC(c3ccn4ncc(C(=O)N5CCCCC5)c4c3)CC2)cn1`, the IC50 is more than 99.5 µM.
In the case of `CC(C)[C@@H](Nc1ncnc2[nH]ccc12)c1nc2ccccc2[nH]1` it was 96.6 µM.
`O=C(c1c[nH]c(=O)cn1)N1CCC(c2ccn3ncc(C(=O)N4CCCCC4)c3c2)CC1` came in with a concentration for half-maximal inhibition (IC50) of 78.4 µM.
Turning to `O=C(N[C@@H](C(=O)O)C1Cc2ccccc2C1)c1ncnc2[nH]ccc12`, the IC50 was more than 99.5 µM.
On to `O=C(c1ncc[nH]1)N1CCC(c2ccn3ncc(C(=O)N4CCCCC4)c3c2)CC1`, for which the IC50 was more than 99.5 µM.
As to `Cc1ccc2snc(C(=O)N(C)CC[C@@H](Nc3ncnc4[nH]ccc34)C(C)C)c2c1`, the IC50 is more than 99.5 µM.
`O=C(O)c1sccc1C(=O)N1CCC(c2ccn3ncc(C(=O)N4CCCCC4)c3c2)CC1` showed an IC50 of 38 µM.
In turn, `CC(C)[C@H]1N(c2ncnc3[nH]ccc23)CC12CCOCC2` had an IC50 of more than 99.5 µM.
Compound `Cc1ncnc2c1C[C@@H](C(=O)N(C)CC[C@@H](Nc1ncnc3[nH]ccc13)C(C)C)CC2` registered an IC50 of more than 99.5 µM.
With `O=C(c1cn2ncccc2n1)N1CCC(c2ccn3ncc(C(=O)N4CCCCC4)c3c2)CC1`, the IC50 was more than 99.5 µM.
`Cc1nc2ccc(C(=O)N(C)CC[C@@H](Nc3ncnc4[nH]ccc34)C(C)C)cc2s1`: the IC50 is more than 99.5 µM.
Turning to `O=C(N[C@@H](C(=O)O)c1ccc2c(c1)CCO2)c1ncnc2[nH]ccc12`, the IC50 was 78.4 µM and 74.6 µM.
In the case of `CO[C@@H]1CCCN(C(=O)c2cnn3ccc(C4CCN(C(=O)c5ccccc5)CC4)cc23)C1` it was more than 99.5 µM; in that of `CC(C)[C@@H]1C(=O)NCCN1c1ncnc2[nH]ccc12`, 35.3 µM.
In turn, `CC(C)[C@@H](Nc1ncnc2[nH]ccc12)C(N)=O` yielded an IC50 of 30.7 µM.
With `CC(C)(NC(=O)c1ncnc2[nH]ccc12)c1cc(C(=O)O)[nH]n1`, the IC50 is more than 99.5 µM.
The compound `O=C(O)c1ccc(C(=O)N2CCC(c3ccn4ncc(C(=O)N5CCCCC5)c4c3)CC2)o1` displayed an IC50 of 68.1 µM. This lies in the double-digit micromolar range.
`O=C(N[C@H]1CCC[C@H]1C(=O)O)c1cnn2ccc(C3CCN(C(=O)c4ccccc4)CC3)cc12` came in with an IC50 of 35.8 µM.
The compound `Cc1nccc(C(=O)N2CCC(c3ccn4ncc(C(=O)N5CCCCC5)c4c3)CC2)n1` registered an IC50 of more than 99.5 µM.
In the case of `Cc1n[nH]c(C)c1C(=O)N1CCC(c2ccn3ncc(C(=O)N4CCCCC4)c3c2)CC1` it was more than 99.5 µM; in that of `O=C(c1nnn[nH]1)N1CCC(c2ccn3ncc(C(=O)N4CCCCC4)c3c2)CC1`, 28.3 µM; in that of `O=C(c1cnc[nH]1)N1CCC(c2ccn3ncc(C(=O)N4CCCCC4)c3c2)CC1`, more than 99.5 µM.
In turn, `O=C(CCN(Cc1cccc(Cl)c1)C(=O)c1ccc(F)cn1)N1CCNCC1` had a half-inhibitory concentration (IC50) of more than 99.5 µM.
In the case of `O=C(c1cccnc1S)N1CCC(c2ccn3ncc(C(=O)N4CCCCC4)c3c2)CC1` it was 61.6 µM; in that of `O=C(c1cc(O)ccn1)N1CCC(c2ccn3ncc(C(=O)N4CCCCC4)c3c2)CC1`, more than 99.5 µM.
Take `CC(C)[C@@H](Nc1ncnc2[nH]ccc12)c1cccs1`: the IC50 came to 14.9 µM.
In the case of `Cn1cc([C@@H](Nc2ncnc3[nH]ccc23)C2CCC2)cn1` it was 15 µM.
For `COc1ccccc1C[C@@H](Nc1ncnc2[nH]ccc12)C(C)C`, the IC50 is 97.5 µM.
On to `O=C(O)c1ccsc1C(=O)N1CCC(c2ccn3ncc(C(=O)N4CCCCC4)c3c2)CC1`, for which the IC50 turned out to be 58.9 µM.
With `CC(C)[C@@H](Nc1ncnc2[nH]ccc12)C(F)F`, the IC50 was determined as 15.2 µM.
`CC(C)c1c[nH]nc1NC(=O)c1ccc(NC(=O)Nc2ccccc2)cc1` returned an IC50 of more than 99.5 µM.
Under `Cn1nc(C(=O)O)cc1C(=O)N1CCC(c2ccn3ncc(C(=O)N4CCCCC4)c3c2)CC1` stands more than 99.5 µM; under `Cn1nc(C(=O)N2CCC(c3ccn4ncc(C(=O)N5CCCCC5)c4c3)CC2)cc1C(=O)O`, 66.4 µM.
The compound `O=C(c1ccccc1)N1CCC(c2ccn3ncc(C(=O)N4CCCC[C@H](O)C4)c3c2)CC1` yielded an IC50 of more than 99.5 µM.
`CC(C)[C@@H](CCN(C)C(=O)c1nn(C)c2ccc(F)cc12)Nc1ncnc2[nH]ccc12` had an IC50 of more than 99.5 µM.
